Test results reported in patent US5168100A, “HP530 compounds and process for preparing the same” (Sapporo Breweries Limited, priority 1990, dated 1992).
Converted amounts (≈) assume the structure as drawn.

What was measured:
Escherichia coli JCM1649 = assay: Antimicrobial activity (MIC), Escherichia coli; assay type: cell-based
Description: (§1) The minimum inhibitory concentrations (MIC's) of the HP530 compounds and their derivatives of the invention against bacteria and fungi are shown in Table 2.

Proteus vulgaris JCM1668 = assay: Antimicrobial activity (MIC), Proteus vulgaris; assay type: cell-based
Description: as §1

[1] = system: Xanthomonas maltophilia JCM1975; assay: Antimicrobial activity (MIC), Xanthomonas maltophilia; assay type: cell-based; conditions: Stenotrophomonas maltophilia
Description: as §1

[2] = system: Staphylococcus epidermidis JCM2414; assay: Antimicrobial activity (MIC), Staphylococcus epidermidis; assay type: cell-based
Description: as §1

[3] = system: Bacillus subtilis M45Rec^-; assay: Antimicrobial activity (MIC), Bacillus subtilis M45Rec^-; assay type: cell-based
Description: as §1

[4] = system: Micrococcus luteus JCM1464; assay: Antimicrobial activity (MIC), Micrococcus luteus; assay type: cell-based
Description: as §1

W98 cell line = assay: Cytotoxicity (IC100) against W98 cell line; assay type: cell-based; conditions: Homo sapiens; W98 cells, final 10% methanol solutions; read-out: IC100 (100% growth inhibiting concentration)
Method: 2) Cytotoxicity (IC100) against W98 cell line obtained by converting the lung cells of a human emryo by an SV40 virus was examined in the following way. When the HP530 compounds and their derivatives dissolved in methanol were added to culture solutions in such a manner that the culture solutions were prepared final 10% methanol solutions, the cytotoxicity of the HP530 compounds and their derivatives against the growth of the W98 cells in the culture solution was measured as 100% growth inhibiting concentration (IC100).

Candida albicans JCM1542 = assay: Antimicrobial activity (MIC), Candida albicans; assay type: cell-based
Description: as §1

[5] = system: Klebsiella pneumoniae JCM1662; assay: Antimicrobial activity (MIC), Klebsiella pneumoniae; assay type: cell-based
Description: as §1

[6] = system: mouse fibrosarcoma Meth-A cell line; assay: Antitumor activity, increase in life span of CDF1 mice inoculated with Meth-A cells; assay type: in vivo; conditions: day 1-4
Description: 1) CDF1 mice were inoculated intraperitoneally with 1×10^6 cells of mouse fibrosarcoma Meth-A cell line on day 0. HP530 compounds and their derivatives dissolved in a physiological salt solution were administrated intraperitoneally once a day on day 1-4. Increase in life span is represented by the percentage of the ratio of the mean number of surviving days (T) of the treated groups of mice to the mean number of surviving days (C) of the untreated groups of mice.

[7] = system: Bacillus subtilis H17Rec^+; assay: Antimicrobial activity (MIC), Bacillus subtilis H17Rec^+; assay type: cell-based
Description: as §1

[8] = system: Salmonella typhimurium TA1535; assay: Antimicrobial activity (MIC), Salmonella typhimurium; assay type: cell-based; conditions: Salmonella enterica
Description: as §1

[9] = system: Staphylococcus aureus JCM2151; assay: Antimicrobial activity (MIC), Staphylococcus aureus; assay type: cell-based
Description: as §1

[10] = system: Saccharomyces cerevisiae JCM1499; assay: Antimicrobial activity (MIC), Saccharomyces cerevisiae; assay type: cell-based
Description: as §1

CDF1 mice = assay: Acute toxicity in CDF1 mice; assay type: in vivo, mouse; conditions: intraperitoneal, three CDF1 mice
[11] = ethyl acetate, acetone, n-hexane
[12] = solvents in which soluble (acidic water, organic solvents)

Structure (SMILES) | MIC (Escherichia coli JCM1649) | MIC (Proteus vulgaris JCM1668) | MIC [1] | MIC [2] | MIC [3] | MIC [4] | IC100 (W98 cell line) | MIC (Candida albicans JCM1542) | MIC [5] | Antitumor Activity T/C ([6]; 2.5 mg/kg i.p. once a day) | Antitumor Activity T/C ([6]; 5.0 mg/kg i.p. once a day) | Antitumor Activity T/C ([6]; 10.0 mg/kg i.p. once a day) | MIC [7] | MIC [8] | Solubility (Solubility; [11]) | Solubility (Solubility; [12]) | Solubility (Solubility; water) | MIC [9] | MIC [10] | Acute toxicity (CDF1 mice; 20 mg/kg) | also measured
CC=C(C)c1cc(=O)c2c(C)cc3c(c2o1)C(=O)c1c(ccc(C2CC(C)(N(C)C)C(OC(C)=O)C(C)O2)c1O)C3=O (stereo not drawn) [HP530G] | > 100 µg/mL | > 100 µg/mL | > 100 µg/mL | 25 µg/mL (≈ 43.6 µM) | 3.2 µg/mL (≈ 5.58 µM) | 12.5 µg/mL (≈ 21.8 µM) | 0.1 µg/mL | > 100 µg/mL | > 100 µg/mL | 112% | 123% | 115% | 100 µg/mL (≈ 174 µM) | 100 µg/mL (≈ 174 µM) | hardly soluble in ethyl acetate, acetone and n-hexane | Soluble in acidic water, methanol, chloroform and benzene | insoluble in water | 50 µg/mL (≈ 87.2 µM) | > 100 µg/mL | no toxicity | Antitumor Activity T/C ([6]; 20.0 mg/kg i.p. once a day): 123%
CC=CC1OC1(C)c1cc(=O)c2c(C)cc3c(c2o1)C(=O)c1c(ccc(C2CC(C)(N(C)C)C(O)C(C)O2)c1O)C3=O (stereo not drawn) [Deacetyl HP530D] | > 100 µg/mL | > 100 µg/mL | 50 µg/mL (≈ 87.2 µM) | 6.3 µg/mL (≈ 11 µM) | 0.4 µg/mL (≈ 0.697 µM) | 1.6 µg/mL (≈ 2.79 µM) | 0.00015 µg/mL | > 100 µg/mL | > 100 µg/mL | – | – | – | 12.5 µg/mL (≈ 21.8 µM) | 3.2 µg/mL (≈ 5.58 µM) | hardly soluble in ethyl acetate, acetone and n-hexane | Soluble in acidic water, methanol, chloroform and benzene | insoluble in water | 1.6 µg/mL (≈ 2.79 µM) | 50 µg/mL (≈ 87.2 µM) | no toxicity | Antitumor Activity T/C ([6]; 0.25 mg/kg i.p. once a day): 92%; Antitumor Activity T/C ([6]; 0.5 mg/kg i.p. once a day): 108%; Antitumor Activity T/C ([6]; 1.0 mg/kg i.p. once a day): 123%; Antitumor Activity T/C ([6]; 2.0 mg/kg i.p. once a day): 185%
Cc1cc2c(c3oc(C4(C)OC4C)cc(=O)c13)C(=O)c1c(ccc(C3CC(C)(N(C)C)C(O)C(C)O3)c1O)C2=O (stereo not drawn) [Deacetyl HP530E] | > 100 µg/mL | > 100 µg/mL | 25 µg/mL (≈ 45.7 µM) | 6.3 µg/mL (≈ 11.5 µM) | 0.2 µg/mL (≈ 0.365 µM) | 0.4 µg/mL (≈ 0.73 µM) | 0.00015 µg/mL | > 100 µg/mL | > 100 µg/mL | 183% | > 187% | 83% | 6.3 µg/mL (≈ 11.5 µM) | 0.4 µg/mL (≈ 0.73 µM) | hardly soluble in ethyl acetate, acetone and n-hexane | Soluble in acidic water, methanol, chloroform and benzene | insoluble in water | 3.2 µg/mL (≈ 5.84 µM) | > 100 µg/mL | – | Antitumor Activity T/C ([6]; 1.25 mg/kg i.p. once a day): 107%; Acute toxicity (CDF1 mice; 5 mg/kg): no toxicity
CC(=O)OC1C(C)OC(c2ccc3c(c2O)C(=O)c2c(cc(C)c4c(=O)cc(C5(C)OC5C)oc24)C3=O)CC1(C)N(C)C (stereo not drawn) [HP530E] | > 100 µg/mL | > 100 µg/mL | > 100 µg/mL | > 100 µg/mL | 0.2 µg/mL (≈ 0.339 µM) | 0.8 µg/mL (≈ 1.36 µM) | 0.0006 µg/mL | > 100 µg/mL | > 100 µg/mL | 104% | 127% | > 196% | 12.5 µg/mL (≈ 21.2 µM) | 0.8 µg/mL (≈ 1.36 µM) | hardly soluble in ethyl acetate, acetone and n-hexane | Soluble in acidic water, methanol, chloroform and benzene | insoluble in water | 6.3 µg/mL (≈ 10.7 µM) | > 100 µg/mL | no toxicity | Antitumor Activity T/C ([6]; 20.0 mg/kg i.p. once a day): > 192%
CC=CC1OC1(C)c1cc(=O)c2c(C)cc3c(c2o1)C(=O)c1c(ccc(C2CC(C)(N(C)C)C(OC(C)=O)C(C)O2)c1O)C3=O (stereo not drawn) [HP530D] | > 100 µg/mL | > 100 µg/mL | 3.2 µg/mL (≈ 5.2 µM) | 3.2 µg/mL (≈ 5.2 µM) | 0.4 µg/mL (≈ 0.65 µM) | 1.6 µg/mL (≈ 2.6 µM) | 0.0006 µg/mL | 100 µg/mL (≈ 162 µM) | > 100 µg/mL | – | – | – | 3.2 µg/mL (≈ 5.2 µM) | 1.6 µg/mL (≈ 2.6 µM) | hardly soluble in ethyl acetate, acetone and n-hexane | Soluble in acidic water, methanol and chloroform | insoluble in water | 1.6 µg/mL (≈ 2.6 µM) | 6.3 µg/mL (≈ 10.2 µM) | – | Antitumor Activity T/C ([6]; 0.25 mg/kg i.p. once a day): 108%; Antitumor Activity T/C ([6]; 0.5 mg/kg i.p. once a day): 123%; Antitumor Activity T/C ([6]; 1.0 mg/kg i.p. once a day): 192%; Antitumor Activity T/C ([6]; 2.0 mg/kg i.p. once a day): > 215%; Acute toxicity (CDF1 mice; 10 mg/kg): no toxicity
